Converted amounts (≈) assume the structure as drawn.
Experiments:
Assay type in all cases: physicochemical
[1] = Solid-state physical stability: form change by XRPD after stress storage; conditions: Solid state
Experimental: (§1) Compound I, Compound I fumaric acid co-crystals and amorphous Compound I fumaric acid samples (10 mg) were placed in an open vial at 50° C./75% RH and 80° C./75% RH chamber for one week. A same amount of sample was placed in a closed vial at 50° C. and 80° C. chamber for 1 week. The samples were exposed to 100 k Lux light for 12 h at 25° C. Solids were examined by XRPD for physical stability determination and by UPLC for chemical stability determination. The color of the samples was evaluated by visual observation. Table 5 compares the stability of Compound I and its various solid forms.

[2] = Solubility in various media at 25° C. after 24 hours equilibration (UPLC); conditions: for final pH of the sample (in parentheses): after 24 hours equilibration
[3] = Solid-state chemical stability: degradation products by UPLC/HPLC after stress storage; conditions: for DP % (Degradation Product), Bulk (UPLC): Solid state; for DP % (Degradation Product), Amber vial (HPLC) / DP % (Degradation Product), Clear vial (HPLC): Xenon light (approx. 1200 kLuxh)
Experimental: as §1

[4] = Dynamic Vapor Sorption (DVS) moisture absorption / hygroscopicity; conditions: for solid form after DVS: after DVS testing; for moisture absorption by DVS: at 90% RH, 25° C.; for hygroscopicity: by DVS
[5] = Crystal form after grinding, compression and wet granulation; conditions: compression and wet granulation (water and ethanol)
[6] = 1 week 80° C., closed container
[7] = 0.01N HCl pH 2.0, 25° C., 24 hours equilibration
[8] = 0.1N HCl pH 1.0, 25° C., 24 hours equilibration
[9] = FaSSIF pH 6.5, 25° C., 24 hours equilibration
[10] = FeSSIF pH 5.8, 25° C., 24 hours equilibration
[11] = SGF pH 2.0, 25° C., 24 hours equilibration
[12] = acetate buffer pH 4.7, 25° C., 24 hours equilibration
[13] = borate buffer pH 10.0, 25° C., 24 hours equilibration
[14] = phosphate buffer pH 6.8, 25° C., 24 hours equilibration
[15] = water, 25° C., 24 hours equilibration
[16] = listed as Compound I fumaric acid co-crystals (2:1)
[17] = 1 week 50° C., closed container

SMILES | Bulk (XRPD) [1, 6] | solubility [2, 7] [µg/mL] | final pH of the sample (in parentheses) ([2]; 0.01N HCl pH 2.0) | solubility [2, 8] [µg/mL] | final pH of the sample (in parentheses) ([2]; 0.1N HCl pH 1.0) | solubility [2, 9] [µg/mL] | final pH of the sample (in parentheses) ([2]; FaSSIF pH 6.5) | solubility [2, 10] [µg/mL] | final pH of the sample (in parentheses) ([2]; FeSSIF pH 5.8) | solubility [2, 11] [µg/mL] | final pH of the sample (in parentheses) ([2]; SGF pH 2.0) | solubility [2, 12] [µg/mL] | final pH of the sample (in parentheses) ([2]; acetate buffer pH 4.7) | final pH of the sample (in parentheses) ([2]; borate buffer pH 10.0) | final pH of the sample (in parentheses) ([2]; phosphate buffer pH 6.8) | final pH of the sample (in parentheses) ([2]; water) | DP % (Degradation Product), Bulk (UPLC) [3, 6] [%] | DP % (Degradation Product), Bulk (UPLC) ([3]; 1 week 80° C./75% r.h.) [%] | DP % (Degradation Product), Amber vial (HPLC) [3] [%] | DP % (Degradation Product), Clear vial (HPLC) [3] [%] | further results
Cc1nc(C)c(C(=O)Nc2ccc(F)c(-c3nc4ncc(-c5ncccc5C)cn4n3)c2)o1 [Amorphous Compound I Fumaric Acid (1:1), N-(4-fluoro-3-(6-(3-methylpyridin-2-yl)-[1,2,4]triazolo[1,5-a]pyrimidin-2-yl)phenyl)-2,4-dimethyloxazole-5-carboxamide] | no change | 36 (≈ 81.2 µM) | (2.1) | 350 (≈ 789 µM) | (1.1) | 7 (≈ 15.8 µM) | (5.8) | 18 (≈ 40.6 µM) | (5.6) | 55 (≈ 124 µM) | (2.2) | <0.1 | (4.6) | (9.6) | (6.6) | (3.0) | 2.6 | 2.7 | 2.8 | 4.5 | solubility [2, 13]: <0.1 µg/mL; solubility [2, 14]: <0.1 µg/mL; solubility [2, 15]: 0.2 µg/mL (≈ 0.451 µM)
Cc1nc(C)c(C(=O)Nc2ccc(F)c(-c3nc4ncc(-c5ncccc5C)cn4n3)c2)o1 [Amorphous Compound I Fumaric Acid (2:1), N-(4-fluoro-3-(6-(3-methylpyridin-2-yl)-[1,2,4]triazolo[1,5-a]pyrimidin-2-yl)phenyl)-2,4-dimethyloxazole-5-carboxamide] | no change | 9 (≈ 20.3 µM) | (2.0) | 180 (≈ 406 µM) | (1.1) | 3 (≈ 6.77 µM) | (6.1) | 13 (≈ 29.3 µM) | (5.7) | 25 (≈ 56.4 µM) | (2.2) | <0.1 | (4.7) | (9,7) | (6.7) | (3.2) | 1.7 | 1.6 | 1.5 | 10.6 | solubility [2, 13]: <0.1 µg/mL; solubility [2, 14]: <0.1 µg/mL; solubility [2, 15]: <0.1 µg/mL
Cc1nc(C)c(C(=O)Nc2ccc(F)c(-c3nc4ncc(-c5ncccc5C)cn4n3)c2)o1 [Compound I Fumaric Acid Co-crystal (2:1), N-(4-fluoro-3-(6-(3-methylpyridin-2-yl)-[1,2,4]triazolo[1,5-a]pyrimidin-2-yl)phenyl)-2,4-dimethyloxazole-5-carboxamide] | no change | 5 | (1.9) | 160 | (0.8) |  | (5.9) |  | (5.5) | 30 | (1.9) |  | (4.5) | (9.6) | (6.6) | (3.1) | 1.2 | 1.2 | 1.2 | 1.2 | solid form after DVS [4, 16]: remains the same form; moisture absorption by DVS [4]: 0.12%; moisture absorption by DVS [4, 16]: 0.12%; hygroscopicity [4]: non-hygroscopic; hygroscopicity [4, 16]: non-hygroscopic; Bulk (XRPD) [1, 17]: no change; Bulk (XRPD) ([1]; 1 week 50° C./75% r.h.): no change; solubility compared to the solubility of the free form ([2]; FeSSIF): significantly better; solubility at 24 h ([2]; thermodynamic from solid, FeSSIF pH 5.8, 25° C., 24 hours equilibration): 17 µg/mL; DP % (Degradation Product), Bulk (UPLC) [3, 17]: 1.2%; DP % (Degradation Product), Bulk (UPLC) ([3]; 1 week 50° C./75% r.h.): 1.2%
Cc1nc(C)c(C(=O)Nc2ccc(F)c(-c3nc4ncc(-c5ncccc5C)cn4n3)c2)o1 [Form B, N-(4-fluoro-3-(6-(3-methylpyridin-2-yl)-[1,2,4]triazolo[1,5-a]pyrimidin-2-yl)phenyl)-2,4-dimethyloxazole-5-carboxamide] | no change | 21 (≈ 47.4 µM) | (2.1) | 170 (≈ 383 µM) | (1.0) | 7 (≈ 15.8 µM) | (5.7) | 16 (≈ 36.1 µM) | (5.6) | 63 (≈ 142 µM) | (1.9) | 2 (≈ 4.51 µM) | (4.6) | (8.1) | (6.5) | (2.9) | 1.7 | 1.7 | 1.7 | 1.6 | crystal form after grinding, compression and wet granulation [5]: did not alter the crystal form; solid form after DVS [4]: remains the same form; moisture absorption by DVS [4]: 0.3%; hygroscopicity [4]: non-hygroscopic; Bulk (XRPD) [1, 17]: no change; Bulk (XRPD) ([1]; 1 week 50° C./75% r.h.): no change; stability and solubility (24 h) in aqueous media ([2]; aqueous media, 24 h, versus free form hydrate): comparable to the free form hydrate; solubility compared to the solubility of the free form ([2]; biological fluids SGF, FaSSIF and FeSSIF): significantly better; solubility [2, 13]: 2 µg/mL (≈ 4.51 µM); solubility [2, 14]: 2 µg/mL (≈ 4.51 µM); solubility [2, 15]: 4 µg/mL (≈ 9.02 µM); DP % (Degradation Product), Bulk (UPLC) [3, 17]: 1.8%; DP % (Degradation Product), Bulk (UPLC) ([3]; 1 week 50° C./75% r.h.): 1.7%
Cc1nc(C)c(C(=O)Nc2ccc(F)c(-c3nc4ncc(-c5ncccc5C)cn4n3)c2)o1 [Form C, N-(4-fluoro-3-(6-(3-methylpyridin-2-yl)-[1,2,4]triazolo[1,5-a]pyrimidin-2-yl)phenyl)-2,4-dimethyloxazole-5-carboxamide] | no change |  |  | 240 (≈ 541 µM) | (1.1) |  | (5.5) |  | (5.5) | 46 (≈ 104 µM) | (2.0) |  | (4.4) |  | (6.4) | (2.9) | 1.8 | 1.8 | 1.8 | 1.8 | moisture absorption by DVS [4]: approximately 0.6%; hygroscopicity [4]: slightly hygroscopic; Bulk (XRPD) [1, 17]: no change; Bulk (XRPD) ([1]; 1 week 50° C./75% r.h.): no change; DP % (Degradation Product), Bulk (UPLC) [3, 17]: 1.8%; DP % (Degradation Product), Bulk (UPLC) ([3]; 1 week 50° C./75% r.h.): 1.7%

— patent US11891401B2, “Solid forms of N-(4-fluoro-3-(6-(3-methylpyridin-2-yl)-[1,2,4]triazolo[1,5-a]pyrimidin-2-yl)phenyl)-2,4-dimethyloxazole-5-carboxamide” (NOVARTIS AG, priority 2018, dated 2024)
